Patent US11098040B2, “Compounds and methods of use” (Ferro Therapeutics, Inc., priority 2018, dated 2021)
pIC50: −log10 of the molar value. Read-outs that look alike come from different tables or passages of the source.

Key:
[1] = system: KP4; assay: Cell viability assay (CellTiter Glo), pancreatic ductal adenocarcinoma KP4; type: cell-based, human; settings: Homo sapiens; for IC50: KP-4, 96 h, pancreatic cancer cell line KP4, 96 hours, CellTiter Glo, read-out: IC50 μM KP4; for pIC50: KP-4, Cell Line KP4, read-out: IC50
Method: (§1) Cell viability assay was performed to assess the potency of the compounds in human cancer cell lines KP4 (pancreatic ductal adenocarcinoma), MiaPaCa-2 (pancreatic carcinoma), AsPC-1 (pancreatic adenocarcinoma, ascites), 143B (osteosarcoma), and SJSA-1 (osteosarcoma). Selected compounds were also assayed in a human breast epithelial cell line MCF-10A, a nontumorigenic cell line as a control to assess differential activity. Cells at a density of 500-5,000 cells/well were seeded in 96-well plates and incubated at 37° C. overnight. A series of 9 different concentrations of compound stocks (500×) were created by 3-fold serial dilution in DMSO. These compounds were further diluted in culture media and then added to cells so that the final DMSO concentration was equal to 0.25% or less. After 96 hours of incubation, 50 μL of CellTiter Glo reagent (Promega) was added to each well and luminescence was measured after 10 minutes using EnVision (PerkinElmer). Compounds titrated from top concentration of up to 30 μM. The select compounds were tested initially from 30 μM as the top concentration in duplicates (range of 4.6 nM-30 μM). […] Luminescence from cells treated with DMSO alone was set as Max and % of inhibition was calculated as follows: Inhibition %=(Max-Sample value)/Max*100. Data was analyzed using XL-fit software (ID Business Solutions Ltd.). IC50, relative IC50, or % of top inhibition was calculated.
as §1, with “in” for “in human”, “line” for “lines”, “adenocarcinoma).” for “adenocarcinoma), MiaPaCa-2 (pancreatic carcinoma), AsPC-1 (pancreatic adenocarcinoma, ascites), 143B (osteosarcoma), and SJSA-1 (osteosarcoma). Selected compounds were also assayed in a human breast epithelial cell line MCF-10A, a nontumorigenic cell line as a control to assess differential activity.”, “1,000-10,000” for “500-5,000”, “All” for “Compounds titrated from top concentration of up to 30 μM. The select”
(§2) The results of the assay on stability in blood and IC50 values for pancreatic cancer cell line KP4 are given below in Table 24.

[2] = Whole blood stability, mouse; type: in vitro ADME
Text: as §2

[3] = Whole blood stability, human; type: in vitro ADME
Text: as §2

Row | Compound | IC50 [1] [µM] | Whole Blood Stability % Remaining at 37° C. Mouse ([2]; 0 min) [%] | Whole Blood Stability % Remaining at 37° C. Mouse ([2]; 30 min) [%] | Whole Blood Stability % Remaining at 37° C. Mouse ([2]; 60 min) [%] | Whole Blood Stability % Remaining at 37° C. Human ([3]; 0 min) [%] | Whole Blood Stability % Remaining at 37° C. Human ([3]; 30 min) [%] | Whole Blood Stability % Remaining at 37° C. Human ([3]; 60 min) [%] | pIC50 [1]
1 | C[C@H]1Cc2c([nH]c3ccccc23)[C@@H](c2ccc(N3CCN(C)CC3)cc2)N1C(=O)OCl [Compound 105] | 0.5 to 1 | – | – | – | – | – | – | –
2 | CN(C)C(=O)[C@H]1Cc2c([nH]c3ccccc23)[C@@H](c2ccc([Si](C)(C)C)cc2)N1C(=O)CCl [Compound 67a] | > 1 | 100.0 | 52.4 | 18.2 | 100.0 | 35.5 | 15.5 | –
3 | COC(=O)c1ccc([C@@H]2c3[nH]c4ccccc4c3C[C@H](C)N2C(=O)CCl)cc1 [Example 77a] | 0.5 to 1 | 100.0 | 0.0 | 0.0 | 100.0 | 47.5 | 14.8 | –
4 | CN(C)C(=O)[C@H]1Cc2c([nH]c3ccccc23)[C@H](c2ccc(C(=O)NC[Si](C)(C)C)cc2)N1C(=O)CCl [Compound 66] | 0.01 to 0.1 | 100.0 | 69.8 | 26.8 | 100.0 | 79.1 | 45.8 | –
5 | CC(C)(C)OC(=O)c1ccc([C@@H]2c3[nH]c4ccccc4c3C[C@H](CO)N2C(=O)CCl)cc1 [Example 64a] | > 1 | 100.0 | 8.3 | 3.2 | 100.0 | 38.0 | 15.5 | –
6 | O=C(O)c1ccc([C@H]2c3[nH]c4ccccc4c3C[C@H](C(=O)O)N2C(=O)CCl)cc1 [Compound 5] | > 1 | 100.0 | 86.3 | 67.9 | 100.0 | 106.3 | 82.0 | –
7 | COC(=O)c1ccc([C@H]2c3[nH]c4ccc(OC)cc4c3C[C@H](C(=O)OC)N2C(=O)CCl)cc1 [Compound 277] | – | – | – | – | – | – | – | 7.44
8 | [2H]C([2H])(Cl)C(=O)N1[C@@H](c2ccc(S(=O)(=O)NC34CC5CC(CC(C5)C3)C4)cc2)c2[nH]c3ccccc3c2C[C@@H]1C(=O)OC [Compound 251] | – | – | – | – | – | – | – | 8.19
9 | CN(C)C(=O)[C@H]1Cc2c([nH]c3ccccc23)[C@H](c2ccncc2)N1C(=O)CCl [Compound 50] | 0.1 to 0.5 | – | – | – | – | – | – | –
10 | C[C@H]1Cc2c([nH]c3ccccc23)[C@H](c2ccc([Si](C)(C)C)cc2)N1C(=O)CCl [Compound 106] | < 0.01 | – | – | – | – | – | – | –
11 | C[C@H]1Cc2c([nH]c3ccccc23)[C@@H](c2ccc([Si](C)(C)C)cc2)N1C(=O)CCl [Compound 107] | > 1 | – | – | – | – | – | – | –

Further lines, results first:

Row | IC50 [1] [µM] | Whole Blood Stability % Remaining at 37° C. Mouse ([2]; 0 min) [%] | Whole Blood Stability % Remaining at 37° C. Mouse ([2]; 30 min) [%] | Whole Blood Stability % Remaining at 37° C. Mouse ([2]; 60 min) [%] | Whole Blood Stability % Remaining at 37° C. Human ([3]; 0 min) [%] | Whole Blood Stability % Remaining at 37° C. Human ([3]; 30 min) [%] | Whole Blood Stability % Remaining at 37° C. Human ([3]; 60 min) [%] | pIC50 [1] | Compound
12 | 0.01 to 0.1 | 100.0 | 56.9 | 38.6 | 100.0 | 67.1 | 59.9 | – | CC(C)(C)OC(=O)[C@H]1Cc2c([nH]c3ccccc23)[C@H](c2ccc([N+](=O)[O-])cc2)N1C(=O)CCl [Compound 11]
13 | < 0.01 | 100.0 | 60.7 | 0.0 | 100.0 | 100.2 | 68.8 | – | CCC[C@H]1Cc2c([nH]c3ccccc23)[C@H](c2ccc(N3CCOCC3)cc2)N1C(=O)CCl [Compound 118]
14 | < 0.01 | 100.0 | 53.0 | 30.5 | 100.0 | 52.0 | 26.5 | – | COC(=O)[C@H]1Cc2c([nH]c3ccccc23)[C@H](c2ccc(C(=O)N(C)C)cc2)N1C(=O)CCl [Compound 8]
15 | 0.01 to 0.1 | 100.0 | 72.3 | 58.6 | 100.0 | 60.9 | 49.6 | – | COC(=O)[C@H]1Cc2c([nH]c3ccccc23)[C@H](c2ccc(NC(C)=O)cc2)N1C(=O)CCl [Compound 80]
16 | < 0.01 | 100.0 | 0.0 | 0.0 | 100.0 | 56.4 | 27.0 | – | COC(=O)c1ccc([C@H]2c3[nH]c4ccc(Br)cc4c3C[C@H](C(=O)OC)N2C(=O)CCl)cc1 [Compound 88]
17 | 0.01 to 0.1 | 100.0 | 68.2 | 48.6 | 100.0 | 60.1 | 44.5 | – | CNC(=O)c1ccc([C@H]2c3[nH]c4ccccc4c3C[C@H](C(=O)OC)N2C(=O)CCl)cc1 [Compound 7]
18 | < 0.01 | 100.0 | 55.5 | 34.4 | 100.0 | 48.9 | 30.8 | – | COC(=O)[C@H]1Cc2c([nH]c3ccccc23)[C@H](c2ccc(S(=O)(=O)N(C)C)cc2)N1C(=O)CCl [Compound 23]
19 | 0.1 to 0.5 | 100.0 | 83.0 | 50.2 | 100.0 | 72.7 | 66.8 | – | COC(=O)[C@H]1Cc2c([nH]c3ccccc23)[C@H](c2ccc(C(=O)NCCN)cc2)N1C(=O)CCl [Compound 15]
20 | < 0.01 | 100.0 | 47.4 | 27.6 | 100.0 | 58.8 | 24.9 | – | CNS(=O)(=O)c1ccc([C@H]2c3[nH]c4ccccc4c3C[C@H](C(=O)OC)N2C(=O)CCl)cc1 [Compound 22]
21 | < 0.01 | 100.0 | 59.3 | 0.0 | 100.0 | 88.1 | 50.8 | – | C[C@H]1Cc2c([nH]c3ccc(F)cc23)[C@H](c2ccc(N3CCOCC3)cc2)N1C(=O)CCl [Compound 114]
22 | 0.1 to 0.5 | – | – | – | – | – | – | – | CN(C)C(=O)[C@H]1Cc2c([nH]c3ccccc23)[C@@H](c2ccc(C(=O)OC(C)(C)C)cc2)N1C(=O)CCl [Compound 21a]
23 | < 0.01 | – | – | – | – | – | – | – | C[C@H]1Cc2c([nH]c3ccccc23)[C@H](c2ccc(C3CC3)cc2)N1C(=O)CCl [Compound 108]
24 | < 0.01 | – | – | – | – | – | – | – | [2H]C([2H])(Cl)C(=O)N1[C@@H](c2ccc(C(=O)OC)cc2)c2[nH]c3ccccc3c2C[C@@H]1C(=O)OC [Compound 90]
